{"source": "patent US20130101628A1", "about": "(NORTHWESTERN UNIVERSITY, priority 2011, published 2013)", "key": {"[1]": {"system": "ischemic hind-limb", "test": "Murine hind-limb ischemia (HLI) model", "assay_type": "in vivo, mice", "conditions": "for limb motor function score / tissue (limb) salvage score: single i.m. injection 25 μl of 2 mM; for limb motor function score: grade 1-5; for tissue (limb) salvage score: grade 1-6", "protocol": "For the HLI procedure, eight week old male FVB wild-type mice (Charles River) were anesthetized by intraperitoneal injection of avertin (125 mg/kg). By means of a dissecting microscope, the femoral nerve was carefully separated from the vessel bundle. The right femoral artery was ligated and excised, including all superficial and deep branches. Critical limb ischemia was immediately verified by laser Doppler imaging (LDPI, MoorLDI-SIM, Moor Instruments, Ltd) to ensure the ratio (ischemic/non-ischemic limb) was ≦0.20. At postoperative day 3, outliers with low ischemia were triaged based on LDPI (ratio ischemic/nonischemic 0.30) as were outliers with extreme ischemia (necrotic demarcation of entire limb), determined by macroscopic evaluation. […] For follow-up, animals underwent reevaluations with LDPI at postoperative day 7, 14, and 28 before animals were sacrificed (CO, asphyxia) for tissue harvest at day 28. At each time-point, tissue perfusion was measured via LDPI, measuring blood flow in both the ischemic and non-ischemic limb and reporting results as the ratio of these two measurements. All LDPI measurements were taken on a 37° C. heating pad to control body temperature. In addition, motor function and tissue damage was semi-quantitatively assessed on post-operative day 7, 14, 21 and 28 by established scoring systems. Tissue damage in the ischemic limb (limb salvage score) was graded as full recovery (grade 6), minor necrosis or nail loss (grade 5), partial toe amputation (grade 4), total toe amputation (grade 3), partial/total foot amputation (grade 2) or partial/total limb amputation (grade 1) (modified from). Limb motor function was graded as unrestricted (grade 5), no active use of toe(s) or spreading (grade 4), restricted foot use (grade 3), no use of foot (grade 2) or no use of limb at all (grade 1) (modified from). Finally, walking capacity was measured via a Rota Rod apparatus. […] The mean of two assessments was used as for failure time for each animal. At day 28, muscle tissue from the ischemic limb was harvested, fixed in methanol, paraffin-embedded, and cross-sectioned (6-μm) for histological immunostaining. Briefly, sections were blocked with 10% donkey serum (30 min, RT). Primary antibodies were diluted in PBS containing BSA, and applied to tissue slices for 2 hrs at 37° C. Sections were stained for CD31, an endothelial-specific marker, using rat anti-CD31 antibodies (BD Pharmingen Inc) and smooth-muscle α-actin (αSMA), a vascular smooth muscle marker, using rabbit-anti-αSMA (Sigma-Aldrich Co.). For immunofluorescent detection, primary antibodies were resolved with Alexa-Fluor-conjugated secondary antibodies (Invitrogen Corporation, Carlsbad, Calif., USA dilution) and nuclei were counterstained with DAPI (Research Organics). Slides were imaged using fluorescent microscopy (Zeiss), and CD31+capillary forms and CD31+/sMA+]mature microvessels/arterioles were quantified in 3 separate high-power fields (20×) from 3 independent sections in each animal (9 images/animal). All error bars indicate the standard error of the mean. Differences between groups were determined using a one-way analysis of variance (ANOVA) with a Bonferroni multiple comparisons post-hoc test using GraphPad InStat v3.0b. […] VEGF-PA or control treatments were administered by an intramuscular injection three days following the induction of critical ischemia by ligation and excision of the right femoral artery and all superficial and deep branches, as described above. Animals were assessed serially throughout the study for motor function and limb salvage and Laser Doppler perfusion imaging (LDPI) was used to assess tissue perfusion. At the end of the study, exercise endurance was recorded on a Rota Rod treadmill and tissue was harvested for immunohistological staining of capillaries to observe effects on the microcirculation."}, "[2]": {"system": "HUVECs", "test": "HUVEC survival after serum-starvation (Annexin V-PE apoptosis)", "assay_type": "cell-based, human", "conditions": "1 μM in EBM, serum-starvation 24 hours; untreated 31.7%", "protocol": "To evaluate cell survival, endothelial basal media (EBM) without growth factors (Lonza) was used to induce a serum-starvation. Cells were plated in 12 well plates and grown to confluence with standard growth media. […] Cells were grown in these conditions for 24 hours. Survival was quantified using Annexin V: PE staining with 7-AAD vital staining (BD Biosciences) following provided assay instructions and analyzed on a DakoCytomation CyAn. Survival was assessed by determining the fraction of cells that were apoptotic (Annexin V-PE positive)."}, "[3]": {"system": "HUVECs", "test": "HUVEC proliferation (CyQUANT-NF cell number)", "assay_type": "cell-based, human", "conditions": "1 μM in EGM, 48 hours; untreated control 100.0%", "protocol": "In vitro studies were performed using HUVECs, a primary endothelial cell that is VEGF-responsive and frequently used as a model endothelial cell for angiogenesis studies in vitro [31].\nTo evaluate proliferation, HUVECs were plated at 5000 per well in a 96 well plate. […] Additionally, unsupplemented growth media was used as a control. After 48 hours, cell number was quantified using CyQUANT-NF (Invitrogen) and a standard fluorescent microplate reader. Cell number is expressed relative to the group treated with unsupplemented growth media."}, "[4]": {"target": "T1, VEGF receptor 2 (VEGFR2 or KDR) (Homo sapiens, UniProt P35968)", "T1 construct": "host or cells: HUVEC", "T1 sequence (P35968 20-1356)": "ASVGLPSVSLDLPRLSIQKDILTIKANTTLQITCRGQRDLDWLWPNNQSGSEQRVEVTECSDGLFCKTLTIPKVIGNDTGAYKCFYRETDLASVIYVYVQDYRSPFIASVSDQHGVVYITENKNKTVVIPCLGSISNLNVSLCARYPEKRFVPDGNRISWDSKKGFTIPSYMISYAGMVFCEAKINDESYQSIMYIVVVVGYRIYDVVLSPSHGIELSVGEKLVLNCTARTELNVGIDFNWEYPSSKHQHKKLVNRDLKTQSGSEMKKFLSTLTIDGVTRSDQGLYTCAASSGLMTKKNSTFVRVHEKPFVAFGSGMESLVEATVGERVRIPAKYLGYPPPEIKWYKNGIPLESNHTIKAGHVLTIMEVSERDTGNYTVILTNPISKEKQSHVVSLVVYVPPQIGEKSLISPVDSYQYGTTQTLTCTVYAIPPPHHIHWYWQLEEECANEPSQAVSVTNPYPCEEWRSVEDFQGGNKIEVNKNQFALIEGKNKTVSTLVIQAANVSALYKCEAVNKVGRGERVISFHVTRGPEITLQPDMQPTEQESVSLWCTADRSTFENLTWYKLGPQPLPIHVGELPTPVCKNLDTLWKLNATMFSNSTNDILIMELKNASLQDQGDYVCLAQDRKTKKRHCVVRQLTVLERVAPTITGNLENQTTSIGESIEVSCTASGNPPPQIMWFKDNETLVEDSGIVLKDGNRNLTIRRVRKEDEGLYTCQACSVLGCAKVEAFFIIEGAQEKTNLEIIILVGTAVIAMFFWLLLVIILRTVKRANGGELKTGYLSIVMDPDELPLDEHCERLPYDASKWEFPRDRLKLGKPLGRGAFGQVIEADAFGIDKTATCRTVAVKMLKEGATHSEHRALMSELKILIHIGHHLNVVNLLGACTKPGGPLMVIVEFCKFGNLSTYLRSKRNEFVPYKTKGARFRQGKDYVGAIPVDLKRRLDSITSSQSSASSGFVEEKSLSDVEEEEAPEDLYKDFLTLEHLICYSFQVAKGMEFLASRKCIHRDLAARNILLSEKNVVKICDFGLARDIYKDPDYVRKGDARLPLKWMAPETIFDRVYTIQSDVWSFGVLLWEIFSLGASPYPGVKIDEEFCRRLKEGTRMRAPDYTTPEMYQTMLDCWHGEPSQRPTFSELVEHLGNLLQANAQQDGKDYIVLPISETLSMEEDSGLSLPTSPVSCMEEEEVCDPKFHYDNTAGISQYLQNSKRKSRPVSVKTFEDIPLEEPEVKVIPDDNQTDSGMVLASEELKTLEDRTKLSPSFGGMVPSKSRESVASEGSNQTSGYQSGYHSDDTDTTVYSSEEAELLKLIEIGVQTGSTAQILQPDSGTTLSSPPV", "test": "Sandwich ELISA of phosphorylated VEGFR2 in lysates of stimulated HUVEC", "assay_type": "cell-based", "protocol": "Human umbilical vein endothelial cells (HUVECs) and complete endothelial cell growth media (EGM) were purchased (Genlantis, San Diego, Calif.), passaged two times following receipt, and cryo-preserved in media with 5% DMSO. Cells were thawed as needed and grown to confluence in a […] flasks (VWR Falcon) prior to plating for experiments.\nPhosphorylation of both VEGFRI and VEGFR2 was assayed using commercially available assay kit (R&D Systems, Minneapolis, Minn.) following the recommended protocol. First, confluent HUVECs plated in 24 well plates were starved for 5 hours in serum-free defined media (SFDM, Genlantis) specifically designed to maintain cells in a growth factor-free setting for growth factor signaling and metabolic assays. Following starvation, the various treatments were dissolved in SFDM to a concentration of 1 μM. […] Cells were exposed to treatment for 2 minutes. To evaluate the time-course of phosphorylation the same protocol was followed and cells were exposed to VEGF-PA for 0, 1, 3, 5, 10, 15, 20, 25, 30, 40, 50, and 60 minutes."}, "[5]": {"system": "HUVECs", "test": "HUVEC migration scratch assay", "assay_type": "cell-based, human", "conditions": "1 μM in EBM with 0.5% FBS, 18 hours; untreated 25.2%", "protocol": "To evaluate cell migration, endothelial basal media (EBM) without growth factors (Lonza) was supplemented with 0.5% FBS in order to prevent apoptosis but not promote significant migration or proliferation. Cells were grown to confluence in a 12 well plate and a 1 ml pipette tip was used to create a denuded scratch and the surface was washed twice with PBS to remove detached cells. The average scratch width at the initial time-point was […] Markings were placed on the underside of the plate to ensure the same region of the scratch was recorded in each image. […] The total pixel area of the scratch at the initial time-point was recorded using ImageJ analysis software, and the percent migration was determined from the reduction in denuded area at 18 hours."}}, "note": "* marks the point of attachment. Palmitoyl = CCCCCCCCCCCCCCCC(=O)*", "data": [{"substance": "CH3(CH2)14C(O)— VVAAKKKGKLTWQELYQLKYKGI-NH2 (Palmitoyl-VVAAKKKGKLTWQELYQLKYKGI-NH2; SMILES CCCCCCCCCCCCCCCC(=O)N[C@H](C(=O)N[C@H](C(=O)N[C@@H](C)C(=O)N[C@@H](C)C(=O)N[C@@H](CCCCN)C(=O)N[C@@H](CCCCN)C(=O)N[C@@H](CCCCN)C(=O)NCC(=O)N[C@@H](CCCCN)C(=O)N[C@@H](CC(C)C)C(=O)N[C@H](C(=O)N[C@@H](Cc1c[nH]c2ccccc12)C(=O)N[C@@H](CCC(N)=O)C(=O)N[C@@H](CCC(=O)O)C(=O)N[C@@H](CC(C)C)C(=O)N[C@@H](Cc1ccc(O)cc1)C(=O)N[C@@H](CCC(N)=O)C(=O)N[C@@H](CC(C)C)C(=O)N[C@@H](CCCCN)C(=O)N[C@@H](Cc1ccc(O)cc1)C(=O)N[C@@H](CCCCN)C(=O)NCC(=O)N[C@H](C(N)=O)[C@@H](C)CC)[C@@H](C)O)C(C)C)C(C)C) [VEGF-PA]", "values": [{"measurement": "LDPI perfusion ratio (ischemic/non-ischemic limb)", "setting": "[1]; 14 days after induction of ischemia", "value": "0.76±0.05"}, {"measurement": "limb motor function score", "setting": "[1]; day 21", "value": "3.89±0.12"}, {"measurement": "tissue (limb) salvage score", "setting": "[1]; day 21", "value": "4.21±0.21"}, {"measurement": "LDPI perfusion ratio (ischemic/non-ischemic limb)", "setting": "[1]; day 28", "value": "0.72±0.05"}, {"measurement": "Rota Rod walking time prior to failure", "setting": "[1]; day 28, saline 90.4 seconds", "value": "150.5 ± 9.5", "unit": "s"}, {"measurement": "limb motor function score", "setting": "[1]; day 28", "value": "4.21±0.16"}, {"measurement": "tissue (limb) salvage score", "setting": "[1]; day 28", "value": "4.21±0.21"}, {"measurement": "effect on the number of CD31+/smooth muscle actin+ arterioles", "setting": "[1]; tissue harvested at day 28", "value": "no effect"}, {"measurement": "number of CD31+ capillaries in ischemic limb muscle", "setting": "[1]; tissue harvested at day 28, saline 893/mm2", "value": "1582±76 /mm2"}, {"measurement": "fraction of apoptotic cells (Annexin V-PE positive)", "setting": "[2]", "value": "10.2%±3.2%"}, {"measurement": "proliferation (cell number relative to unsupplemented growth media)", "setting": "[3]", "value": "137.0%±2.4%"}, {"measurement": "time of stimulation at which phosphorylated VEGFR2 begins to decrease after initial rise", "setting": "[4]; HUVEC time-course 0-60 minutes, falls below untreated baseline", "value": 10, "unit": "min"}, {"measurement": "VEGFR2 phosphorylation level relative to untreated control", "setting": "[4]; HUVEC, 1 μM, 2 minutes exposure, untreated control 1.000±0.109", "value": "1.581±0.050"}, {"measurement": "reduction in scratch wound size (denuded area)", "setting": "[5]", "value": "68.7%±4.2%"}]}]}
